Measured values from US8314092B2, “Substituted [(5H-pyrrolo[2,1-c][1,4]benzodiazepin-11-yl)piperazin-1-yl]-2,2-dimethylpropanoic acid compounds as dual activity H1 inverse agonists/5-HT2A antagonists” (Eli Lilly and Company, priority 2011, dated 2012).
Structures can show the parent of a compound that is named as a salt.

Legend:
Serotonin Transporter = Serotonin Transporter (Homo sapiens, UniProt P31645); test: Serotonin transporter assay; assay type: binding; conditions: dihydrochloride
Description: (§1) Further, the compounds of the invention may be tested in binding assays and functional activity assays by well known methods for other physiologically important receptors such as, but not limited to, the hERG channel, other serotonin receptors (specifically 5-HT1A, 5-HT1B, 5-HT1D, 5-HT1E, 5-HT1F receptors, lack of agonist activity at 5-HT2B receptors, 5-HT2C, 5-HT4, 5-HTS, 5-HT6, and 5-HT7 receptors), muscarinic receptors, dopaminergic receptors (specifically D1, D2, and D3), GABAA receptors, adrenergic receptors and monoamine transporters. Certain exemplified compounds are tested at these receptors and are shown to lack significant activity.

5-HT1F = 5-HT1F (Homo sapiens, UniProt P30939); test: 5-HT1F binding
Description: as §1

5-HT2A Receptor = target: T1, 5-HT2A Receptor (Rattus norvegicus, UniProt P14842); test: 5-HT2A receptor occupancy in vivo (MDL 100907 tracer); conditions: oral gavage, 1 hour before tracer, read-out: 5-HT2A receptor occupancy EC50
T1 construct: samples of the frontal cortex and cerebellum are removed; from tissue; host or cells: living rat; frontal cortex (cerebellum as null region)
Description: Briefly, male Sprague-Dawley rats (Harlan Sprague-Dawley, Indianapolis, Ind.) weighing approximately 230-280 grams are given ad lib access to food and water until the beginning of the 3-hour experimental protocol. 1 mg/kg ketanserin (non-selective 5-HT2A antagonist) is used as a positive control to establish assay validity. Test compounds or control are administered by oral gavage in a vehicle comprised of 20% hydroxypropyl beta-cyclodextrin. MDL 100907 ((R) -(+)-α-(2,3-Dimethoxyphenyl)-1-[2-(4-fluorophenyl)ethyl]-4-piperidinemethanol), a selective 5-HT2A antagonist, is used as a tracer. […] It is at the time of tracer administration that receptor occupancy (RO) is considered to be measured. […] The level of MDL 100907 tracer is measured in each cortical and cerebellar sample. RO is calculated using the well-established ratio method which employs a region of high receptor density representative of total binding (frontal cortex) normalized by an area without or with very low levels of receptor (cerebellum). […]
MDL 100907 Analysis: Cortex and cerebellar samples are weighed and placed in conical centrifuge tubes on ice. […] Standards are prepared by adding known quantities of analyte to brain tissue samples from non-treated rats and processing as described above. […]

[1] = target: human recombinant H1 receptor (Homo sapiens, UniProt P35367); test: H1 inverse agonism (IP1 accumulation in HEK293/hm H1 cells); assay type: cell-based; set-up: expressed in transfected cells; host or cells: HEK293 (HEK293/hm H1 clone R-40)
Chain of human recombinant H1 receptor (P35367 whole entry): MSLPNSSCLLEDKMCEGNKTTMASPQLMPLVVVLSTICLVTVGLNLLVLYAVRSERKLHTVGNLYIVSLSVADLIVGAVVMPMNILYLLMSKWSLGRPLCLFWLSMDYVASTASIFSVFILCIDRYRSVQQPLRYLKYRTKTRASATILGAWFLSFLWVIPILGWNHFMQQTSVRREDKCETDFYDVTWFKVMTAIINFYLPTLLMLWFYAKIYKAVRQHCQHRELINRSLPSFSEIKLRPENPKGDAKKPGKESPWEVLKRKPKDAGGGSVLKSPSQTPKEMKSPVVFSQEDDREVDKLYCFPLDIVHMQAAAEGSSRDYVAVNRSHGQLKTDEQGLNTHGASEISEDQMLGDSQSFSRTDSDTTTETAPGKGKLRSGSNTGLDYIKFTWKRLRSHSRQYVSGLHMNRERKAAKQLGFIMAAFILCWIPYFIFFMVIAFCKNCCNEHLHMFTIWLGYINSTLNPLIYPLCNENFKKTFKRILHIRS

Chain of Serotonin Transporter (P31645 whole entry): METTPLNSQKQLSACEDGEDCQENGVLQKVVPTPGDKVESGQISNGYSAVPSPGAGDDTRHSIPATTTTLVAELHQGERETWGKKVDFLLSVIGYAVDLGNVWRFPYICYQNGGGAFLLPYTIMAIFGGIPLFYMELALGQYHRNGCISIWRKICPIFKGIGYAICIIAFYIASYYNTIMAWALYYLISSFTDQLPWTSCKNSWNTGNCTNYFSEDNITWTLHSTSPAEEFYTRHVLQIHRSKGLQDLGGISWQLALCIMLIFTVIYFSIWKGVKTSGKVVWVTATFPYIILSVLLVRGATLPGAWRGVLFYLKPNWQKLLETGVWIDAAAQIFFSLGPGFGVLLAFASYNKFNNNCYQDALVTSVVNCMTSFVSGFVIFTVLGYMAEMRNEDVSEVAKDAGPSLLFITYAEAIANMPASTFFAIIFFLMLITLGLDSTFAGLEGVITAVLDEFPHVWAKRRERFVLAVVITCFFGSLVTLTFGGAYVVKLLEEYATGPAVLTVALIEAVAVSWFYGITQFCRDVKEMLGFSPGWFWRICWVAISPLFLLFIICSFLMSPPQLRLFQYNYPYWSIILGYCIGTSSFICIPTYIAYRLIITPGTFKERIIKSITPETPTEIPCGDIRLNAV
Chain of 5-HT1F (P30939 whole entry, species assumed): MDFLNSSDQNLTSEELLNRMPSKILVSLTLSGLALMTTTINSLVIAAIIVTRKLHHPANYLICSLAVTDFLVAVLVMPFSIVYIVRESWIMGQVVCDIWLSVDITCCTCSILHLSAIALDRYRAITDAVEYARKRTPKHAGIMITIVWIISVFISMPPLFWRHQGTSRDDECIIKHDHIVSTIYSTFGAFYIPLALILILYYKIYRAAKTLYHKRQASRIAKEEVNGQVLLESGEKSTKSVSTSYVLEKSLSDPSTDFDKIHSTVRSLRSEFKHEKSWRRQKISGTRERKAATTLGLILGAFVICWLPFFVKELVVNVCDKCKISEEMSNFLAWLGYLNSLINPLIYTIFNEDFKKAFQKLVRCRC
T1 sequence (P14842 whole entry): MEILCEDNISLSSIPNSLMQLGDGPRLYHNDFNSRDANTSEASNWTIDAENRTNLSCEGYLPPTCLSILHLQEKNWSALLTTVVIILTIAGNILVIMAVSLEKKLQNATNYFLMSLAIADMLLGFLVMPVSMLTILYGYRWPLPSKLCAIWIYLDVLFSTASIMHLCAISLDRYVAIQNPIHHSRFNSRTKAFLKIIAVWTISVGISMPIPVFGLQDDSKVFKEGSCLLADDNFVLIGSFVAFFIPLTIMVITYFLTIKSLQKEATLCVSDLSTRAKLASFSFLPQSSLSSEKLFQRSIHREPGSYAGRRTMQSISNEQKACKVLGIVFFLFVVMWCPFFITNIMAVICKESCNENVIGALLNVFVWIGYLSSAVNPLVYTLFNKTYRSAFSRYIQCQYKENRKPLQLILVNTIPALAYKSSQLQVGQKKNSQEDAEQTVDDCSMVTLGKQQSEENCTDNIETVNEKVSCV

For `Cc1cc2n(c1)Cc1cc(Cl)ccc1N=C2N1CCN(CC(C)(C)C(=O)O)CC1` [Example 13, 3-[4-(7-Chloro-2-methyl-5H-pyrrolo[2,1-c][1,4]benzodiazepin-11-yl)piperazin-1-yl]-2,2-dimethylpropanoic acid dihydrochloride], the “Serotonin Transporter” value (Serotonin Transporter) was over 515, the Ki (5-HT1F) was over 8250 nM and the ED50 (5-HT2A Receptor) was 0.27 mg/kg. The IC50 ([1]; IP1 accumulation, HEK293/hm H1 cells) was 53.9 ± 37 nM and the “suppression of constitutive activity (negative efficacy)” value ([1]; relative to positive control Tripelennamine 10 μM) was 126±6%.
